Entries after “also recorded” stand apart in the source; their conditions may differ. Where two headings read alike, the source gives them in different places.
Experiments:
[1] = target: T1, human GABAρ1 (Homo sapiens, UniProt P24046); assay: Inhibition of GABA currents by co-application of 3 µM GABA and analogue, two-microelectrode voltage clamp in X. laevis oocytes; type: cell-based; conditions: for extent of inhibition of GABA currents at high concentrations: maximum inhibition compared with full inhibition (100%); for Emax: read-out: Maximal effect on GABA currents, % Inh; for effect on the responses generated by 3 μM GABA: concentrations up to 20 mM, data not shown;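 for all read-outs here: oocytes expressing human GABAρ1 from injected mRNA, recorded 1–5 days later, clamped at −60 mV, room temperature, compounds bath-applied at pH 7.4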
T1 construct: expressed in transfected cells; host or cells: Xenopus laevis oocytes injected with in vitro transcribed mRNA

[2] = target: T1, human GABAρ1; assay: Modulation of activated GABAρ1: analogue applied during the current plateau upon activation with 3 µM GABA, oocytes; type: cell-based; conditions: for Efficacy % to inhibit GABA responses: activated GABA channels (Fig. 5D empty bars), applied during 3 µM GABA perfusion
[3] = target: LGC-53 (Caenorhabditis elegans, UniProt H2KYN9); assay: cell-based; type: cell-based; conditions: for gating or modulation of LGC-53: high concentrations (up to 1 mM); for Emax: read-out: Maximal effect versus maximal response to DA, % current;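 for all read-outs here: LGC-53 expressed in frog oocytes, two-electrode voltage clamp at −60 mV, analogues bath-applied, full or partial agonism judged by maximal effect against DA applied before and after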
[4] = target: T1, human GABAρ1; assay: Current-voltage ramp (−120 to +70 mV) of GABA currents in presence of the IC50 of each compound, oocytes; type: cell-based; conditions: 3 µM GABA, compound at its IC50; GABA alone as reference
Description: All these compounds are ionized at pH 7.4.
Supplementary Figure S2. I/V Curves A) Current−voltage relations for GABA currents modulated in presence of DA
analogues. B). Percentage of inhibition of DA analogues (for each compound the IC50s were tested) in the currents
Reverse potentials were: -35.25 ± 1.04 mV, -35.69 ±
reverse potential was -35.07 ± 0.90 mV.
(1 picture or pasted object on this page, not shown here)

[5] = target: T1, human GABAρ1; design: method as in Ochoa de la Paz et al., 2012; conditions: Table 1, ref Ochoa de la Paz et al., 2012, cited from earlier work; for IC50: read-out: GABA ρ1 (Human) IC50, oocytes
[6] = target: T1, human GABAρ1; assay: Competition assays: GABA concentration-response curves in presence of 3-MT, oocytes; type: cell-based
[7] = receptor activated with GABA 3 µM
[8] = Fig. 7C, maximal concentration tested, DA 300 µM

T1 sequence (P24046 22-479): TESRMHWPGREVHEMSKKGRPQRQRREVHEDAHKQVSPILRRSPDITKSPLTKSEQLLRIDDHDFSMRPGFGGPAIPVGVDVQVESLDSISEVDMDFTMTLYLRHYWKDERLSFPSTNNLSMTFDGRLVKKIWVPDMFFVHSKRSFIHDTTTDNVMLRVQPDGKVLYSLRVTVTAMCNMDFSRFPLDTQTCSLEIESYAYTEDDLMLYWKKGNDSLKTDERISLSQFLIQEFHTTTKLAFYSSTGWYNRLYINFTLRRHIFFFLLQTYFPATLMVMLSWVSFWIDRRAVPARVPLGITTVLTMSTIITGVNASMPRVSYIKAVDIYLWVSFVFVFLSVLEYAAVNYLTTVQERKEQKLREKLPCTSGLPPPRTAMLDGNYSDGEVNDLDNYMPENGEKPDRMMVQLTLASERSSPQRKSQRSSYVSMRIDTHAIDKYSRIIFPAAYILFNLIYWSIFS
LGC-53, sequence (H2KYN9 entry or part of it): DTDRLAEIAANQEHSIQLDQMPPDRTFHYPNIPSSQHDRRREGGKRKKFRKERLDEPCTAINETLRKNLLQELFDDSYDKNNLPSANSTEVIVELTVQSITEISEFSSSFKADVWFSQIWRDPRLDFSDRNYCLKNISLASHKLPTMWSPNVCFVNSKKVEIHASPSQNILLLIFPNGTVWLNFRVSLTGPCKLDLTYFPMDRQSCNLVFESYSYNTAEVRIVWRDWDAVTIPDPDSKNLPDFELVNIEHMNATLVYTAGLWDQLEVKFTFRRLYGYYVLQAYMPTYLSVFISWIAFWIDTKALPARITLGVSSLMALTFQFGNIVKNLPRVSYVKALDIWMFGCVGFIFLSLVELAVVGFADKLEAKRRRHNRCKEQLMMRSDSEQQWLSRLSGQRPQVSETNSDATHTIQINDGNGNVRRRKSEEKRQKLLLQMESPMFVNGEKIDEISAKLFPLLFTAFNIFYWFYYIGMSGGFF

Structure (SMILES): COc1cc(CCN)ccc1O [3-MT, 3-Methoxytyramine]
- GABA ρ1 (Human) Antagonist: Full or partial ([1]; Table 1): full
- extent of inhibition of GABA currents at high concentrations [1]: Full inhibition
- IC50 ([1]; read-out: GABA ρ1 (Human) IC50, Table 1, oocytes): 285 ± 3 µM
- Emax [1]: 100 ± 2.17%
- Efficacy % to inhibit GABA responses [2]: 51.65 ± 6.93%
- decrease of potency on activated receptor versus co-application [2, 7]: 2 fold
- activity on LGC-53 [3]: inactive
- LGC-53 EC50 (mM) ([3]; Table 1): N.E
- gating or modulation of LGC-53 [3]: Neither GABA nor 3-MT gated the channel or showed an evident modulatory effect
- reversal potential of GABA currents [4]: -35.25 ± 1.04 mV

Structure (SMILES): NCCCCO [4-AM-1-OH, 4-Amino-1-butanol]
- GABA ρ1 (Human) Antagonist: Full or partial ([1]; Table 1): full
- IC50 ([1]; Table 1, oocytes): 3910 ± 544 µM
- Emax [1]: 98.3 ± 7.3%
- Efficacy % to inhibit GABA responses [2]: 65.50 ± 4.77%
- increase of potency on activated receptor versus co-application ([2]; receptor activated with GABA 3 µM, not statistically significant): about 25%
- LGC-53 EC50 (mM) ([3]; Table 1): N.E

Structure (SMILES): CNC[C@H](O)c1ccc(O)c(O)c1 [AD, Adrenaline]
- GABA ρ1 (Human) IC50 (mM) ([1]; Table 1, oocytes): N.E
- effect on the responses generated by 3 μM GABA [1]: failed to elicit any effect
- LGC-53 Agonist: Full or partial [3]: partial
- agonist type on LGC-53 [3]: partial agonists
- EC50 ([3]; LGC-53 EC50 (mM)): 3.8 ± 0.803 mM
- Emax [3]: 59.2 ± 9.4%

Structure (SMILES): NCCc1ccc(O)c(O)c1 [DA, Dopamine]
- currents generated by the compound alone in oocytes injected with human ρ1 ([1]; DA up to 1 mM, no GABA): did not generate evident currents
- extent of inhibition of GABA currents at high concentrations [1]: Full inhibition
- Emax [1]: 94.3 ± 5.84%
- Efficacy % to inhibit GABA responses [2]: 61.94 ± 6.66%
- decrease of potency on activated receptor versus co-application [2, 7]: around 10 fold
- LGC-53 Agonist: Full or partial [3]: full
- EC50 ([3]; EC50 on LGC-53): 0.00415 ± 0.0011 mM
- EC50 ([3]; LGC-53 EC50 (mM)): 0.0042 ± 0.001 mM
- GABA ρ1 (Human) Antagonist: Full or partial [5]: full
- IC50 [5]: 210 ± 1.12 µM

Structure (SMILES): O=C(O)Cc1ccc(O)c(O)c1 [DOPAC, 3,4-Dihydroxyphenylacetic acid]
- GABA ρ1 (Human) Antagonist: Full or partial ([1]; Table 1): partial
- IC50 ([1]; Table 1, oocytes): 2250 ± 258 µM
- extent of inhibition of GABA currents at high concentrations [1]: significantly different from the full inhibition
- Emax [1]: 93.6 ± 2.41%
- change in potency/efficacy between activated receptor and co-application protocols [2, 7]: did not show differences in the efficacy or potency
- LGC-53 EC50 (mM) ([3]; Table 1): N.E

Structure (SMILES): NCCCC(=O)O [GABA, γ-Aminobutyric acid]
- activity on LGC-53 [3]: not modulated; also recorded: neither activated LGC-53 nor modulated the DA responses
- gating or modulation of LGC-53 [3]: Neither GABA nor 3-MT gated the channel or showed an evident modulatory effect
- reversal potential of GABA currents [4]: -35.07 ± 0.90 mV
- Hill number of GABA concentration-response curve ([6]; 3-MT at its IC25): 1.38 ± 0.24
- Hill number of GABA concentration-response curve ([6]; 3-MT at its IC50): 1.40 ± 0.27
- Hill number of GABA concentration-response curve ([6]; 3-MT at its IC75): 1.90 ± 0.36
- Hill number of GABA concentration-response curve ([6]; GABA alone): 1.34 ± 0.37

Structure (SMILES): COc1cc(CC(=O)O)ccc1O [HVA, Homovanillic acid]
- GABA ρ1 (Human) Antagonist: Full or partial ([1]; Table 1): partial
- IC50 ([1]; Table 1, oocytes): 1970 ± 211 µM
- extent of inhibition of GABA currents at high concentrations [1]: significantly different from the full inhibition
- Emax [1]: 86.5 ± 1.89%
- change in potency/efficacy between activated receptor and co-application protocols [2, 7]: did not show differences in the efficacy or potency
- LGC-53 EC50 (mM) ([3]; Table 1): N.E

Structure (SMILES): N[C@@H](Cc1ccc(O)c(O)c1)C(=O)O [L-DOPA, L-3,4-dihydroxyphenylalanine]
- GABA ρ1 (Human) IC50 (mM) ([1]; Table 1, oocytes): N.E
- LGC-53 EC50 (mM) ([3]; Table 1): N.E

Structure (SMILES): NC[C@H](O)c1ccc(O)c(O)c1 [NAD, Noradrenaline]
- GABA ρ1 (Human) IC50 (mM) ([1]; Table 1, oocytes): N.E
- effect on the responses generated by 3 μM GABA [1]: failed to elicit any effect
- EC50 [3]: 0.137 ± 0.072 mM
- LGC-53 Agonist: Full or partial ([3]; Table 1): partial
- Emax [3]: 61 ± 13%

Structure (SMILES): NCCc1ccc(O)cc1 [Tyr, Tyramine]
- agonist type on LGC-53 [3]: partial agonists
- Emax [3, 8]: 64.7 ± 9.6%
- LGC-53 Agonist: Full or partial ([3]; Table 1): partial
- EC50 ([3]; Table 1, read-out: LGC-53 EC50): 2.18 ± 0.482 mM
- GABA ρ1 (Human) Antagonist: Full or partial [5]: full
- IC50 [5]: 550 ± 12 µM

Structure (SMILES): NCCc1ccccc1 [β-PEA, 2-Phenylethylamine]
- IC50 [1]: 1790 ± 104 µM
- GABA ρ1 (Human) Antagonist: Full or partial ([1]; Table 1): full
- Emax [1]: 97.3 ± 2.73%
- Efficacy % to inhibit GABA responses [2]: 63.62 ± 11.44%
- decrease of potency on activated receptor versus co-application [2, 7]: 2 fold
- EC50 [3]: 1.33 ± 0.433 mM
- agonist type on LGC-53 [3]: partial agonists
- Emax [3, 8]: 48.5 ± 10.4%
- LGC-53 Agonist: Full or partial ([3]; Table 1): partial
